Results on 29 molecules are retold here after ChEMBL document CHEMBL5620381, “Design, synthesis and antitubercular activity of novel N-(amino)piperazinyl benzothiazinones with improved safety” (Eur J Med Chem, 2023).

≈ marks a conversion by molar mass, not a printed value.

Assay [1] relates to Mycobacterium tuberculosis. Kind of assay: Antitubercular activity against multidrug resistant Mycobacterium tuberculosis 16995 incubated for 8 days by MABA. The assay is classed as functional. Particulars: Mycobacterium tuberculosis, 16995, 192 h; time 8 day. Background: Resazurin is reduced to fluorescent resorufin, in cell work by metabolically active cells.
For assay [2], the system named is Mycobacterium tuberculosis. Kind of assay: Antitubercular activity against multidrug resistant Mycobacterium tuberculosis 16883 incubated for 8 days by MABA. The assay is classed as functional. To be noted: Mycobacterium tuberculosis, 16883, 192 h; time 8 day.

By MIC is commonly meant the lowest concentration found to suppress growth. A high value points to a less susceptible organism. With `CON=C1CCC(N(C)N2CCN(c3nc(=O)c4cc(C(F)(F)F)cc([N+](=O)[O-])c4s3)CC2C)CC1` (stereo not drawn), the values for the MIC in assay [1] and in assay [2] were 14.9 ng/mL (≈ 28.2 nM) and 6.65 ng/mL (≈ 12.6 nM), respectively.
Consider `O=c1nc(N2CCN(NC3CCCCC3)CC2)sc2c([N+](=O)[O-])cc(C(F)(F)F)cc12`, for which the MIC in assay [1] and in assay [2] was < 1 ng/mL throughout.
`CON=C1CCC(N(C)N2CCN(c3nc(=O)c4cc(C(F)(F)F)cc([N+](=O)[O-])c4s3)CC2(C)C)CC1` (stereo not drawn): the MIC was found to be 15.7 ng/mL (≈ 28.9 nM) in assay [1] and 125 ng/mL (≈ 231 nM) in assay [2].
For `CN(C1CCC(C)(C)CC1)N1CCN(c2nc(=O)c3cc(C(F)(F)F)cc([N+](=O)[O-])c3s2)CC1`, the MIC in assay [1] and in assay [2] was < 1 ng/mL in each case.
For the molecule `CN(C1C2CC3CC(C2)CC1C3)N1CCN(c2nc(=O)c3cc(C(F)(F)F)cc([N+](=O)[O-])c3s2)CC1` (stereo not drawn), the MIC in assay [1] is 1.5 ng/mL (≈ 2.86 nM); in assay [2], < 1 ng/mL.
As to `CC1CC(N(C)N2CCN(c3nc(=O)c4cc(C(F)(F)F)cc([N+](=O)[O-])c4s3)CC2)CC(C)(C)C1` (stereo not drawn), the MIC in assay [1] and in assay [2] was < 1 ng/mL throughout.
For `CN(C1CCCCCCC1)N1CCN(c2nc(=O)c3cc(C(F)(F)F)cc([N+](=O)[O-])c3s2)CC1`, the MIC in assay [1] and in assay [2] was < 1 ng/mL each time.
As for `CN(CC1CCC(F)(F)CC1)N1CCN(c2nc(=O)c3cc(C(F)(F)F)cc([N+](=O)[O-])c3s2)CC1`, the MIC in assay [1] and in assay [2] was < 1 ng/mL each time.
On to `CC1(C)CCC(NN2CCN(c3nc(=O)c4cc(C(F)(F)F)cc([N+](=O)[O-])c4s3)CC2)CC1`, for which the MIC in assay [1] and in assay [2] was < 1 ng/mL throughout.
`CC1CN(c2nc(=O)c3cc(C(F)(F)F)cc([N+](=O)[O-])c3s2)CCN1N(C)C1CCCCC1` (stereo not drawn): the minimal inhibitory concentration (MIC) in assay [1] and in assay [2] was < 1 ng/mL in each case.
Turning to `CC1CCC(C)C(N(C)N2CCN(c3nc(=O)c4cc(C(F)(F)F)cc([N+](=O)[O-])c4s3)CC2)C1` (stereo not drawn), the MIC in assay [1] and in assay [2] was < 1 ng/mL throughout.
For `CC1CN(c2nc(=O)c3cc(C(F)(F)F)cc([N+](=O)[O-])c3s2)CCN1N(C)C1CCC(C)(C)CC1` (stereo not drawn), the MIC in assay [1] and in assay [2] was < 1 ng/mL throughout.
`CN(C1CCC2(CCCCC2)CC1)N1CCN(c2nc(=O)c3cc(C(F)(F)F)cc([N+](=O)[O-])c3s2)CC1`: the MIC in assay [1] and in assay [2] was < 1 ng/mL throughout.
In the case of `CN(C1CCC(F)(F)CC1)N1CCN(c2nc(=O)c3cc(C(F)(F)F)cc([N+](=O)[O-])c3s2)CC1`, the MIC in assay [1] and in assay [2] was < 1 ng/mL each time.
In the case of `CN(C1CCCCC1)N1CCN(c2nc(=O)c3cc(C(F)(F)F)cc([N+](=O)[O-])c3s2)CC1(C)C`, the MIC in assay [1] and in assay [2] was < 1 ng/mL each time.
On to `CC1CCC(NN2CCN(c3nc(=O)c4cc(C(F)(F)F)cc([N+](=O)[O-])c4s3)CC2)CC1` (stereo not drawn), for which the MIC in assay [1] and in assay [2] was < 1 ng/mL each time.
Take `CC1CCC(N(C)N2CCN(c3nc(=O)c4cc(C(F)(F)F)cc([N+](=O)[O-])c4s3)CC2)CC1` (stereo not drawn): the minimum inhibitory concentration (MIC) in assay [1] and in assay [2] was < 1 ng/mL throughout.
With `NNC(=O)c1ccncc1` [ISONIAZID], the MIC in assay [1] and in assay [2] was > 20000 ng/mL in each case.
Regarding `O=c1nc(N2CCN(NC3CCCCCCC3)CC2)sc2c([N+](=O)[O-])cc(C(F)(F)F)cc12`, the MIC in assay [1] and in assay [2] was < 1 ng/mL in each case.
On to `O=c1nc(N2CCN(NC3CCC(F)(F)CC3)CC2)sc2c([N+](=O)[O-])cc(C(F)(F)F)cc12`, for which the MIC in assay [1] was found to be 4 ng/mL (≈ 8.11 nM); in assay [2], 3.15 ng/mL (≈ 6.38 nM).
In the same order, the values of `CN(C1CCCCC1)N1CCN(c2nc(=O)c3cc(C(F)(F)F)cc([N+](=O)[O-])c3s2)CC1` are < 1 ng/mL and < 1 ng/mL.
With `CC1CCCCC1NN1CCN(c2nc(=O)c3cc(C(F)(F)F)cc([N+](=O)[O-])c3s2)CC1` (stereo not drawn), the MIC in assay [1] and in assay [2] was < 1 ng/mL throughout.
On to `O=c1nc(N2CCN(CC3CCCCC3)CC2)sc2c([N+](=O)[O-])cc(C(F)(F)F)cc12` [MACOZINONE], for which the MIC in assay [1] and in assay [2] was < 1 ng/mL each time.
With `CN(C1CCC(=NOC(C)(C)C)CC1)N1CCN(c2nc(=O)c3cc(C(F)(F)F)cc([N+](=O)[O-])c3s2)CC1` (stereo not drawn), the MIC in assay [1] is 12.8 ng/mL (≈ 23 nM); in assay [2] it was 5.25 ng/mL (≈ 9.43 nM).
Take `CN(C1CCC(C)(C)CC1)N1CCN(c2nc(=O)c3cc(C(F)(F)F)cc([N+](=O)[O-])c3s2)CC1(C)C`: the MIC in assay [1] and in assay [2] was < 1 ng/mL throughout.
As to `CO[C@H]1/C=C/O[C@@]2(C)Oc3c(C)c(O)c4c(O)c(c(/C=N/N5CCN(C)CC5)c(O)c4c3C2=O)NC(=O)/C(C)=C\C=C\[C@H](C)[C@H](O)[C@@H](C)[C@@H](O)[C@@H](C)[C@H](OC(C)=O)[C@@H]1C` [RIFAMPIN], the MIC in assay [1] and in assay [2] was > 20000 ng/mL in each case.
Turning to `CC1CCCCC1N(C)N1CCN(c2nc(=O)c3cc(C(F)(F)F)cc([N+](=O)[O-])c3s2)CC1` (stereo not drawn), the MIC in assay [1] and in assay [2] was < 1 ng/mL throughout.
For the molecule `CCON=C1CCC(N(C)N2CCN(c3nc(=O)c4cc(C(F)(F)F)cc([N+](=O)[O-])c4s3)CC2)CC1` (stereo not drawn), the MIC in assay [1] came to 11.2 ng/mL (≈ 21.2 nM); in assay [2], 11.4 ng/mL (≈ 21.7 nM).
In the case of `CON=C1CCC(N(C)N2CCN(c3nc(=O)c4cc(C(F)(F)F)cc([N+](=O)[O-])c4s3)CC2)CC1` (stereo not drawn), the MIC in assay [1] and in assay [2] was < 1 ng/mL each time.
